# Measured values as given in ChEMBL document CHEMBL5303573, “Mapping human microbiome drug metabolism by gut bacteria and their genes” (Nature, 2019).
# What was measured:
# [1] = clostridioides difficile, 12 h, 2 µM
# [2] = The drug is tested on Clostridium sporogenes strain: ATCC15579 for biotransformation. The drug concentrations were measured before and after a 12-h incubation by liquid-chromatography-coupled mass spectrometry (LC–MS); conditions: 2 µM
# [3] = The drug is tested on Clostridium ramosum strain: DSM1402 for biotransformation. The drug concentrations were measured before and after a 12-h incubation by liquid-chromatography-coupled mass spectrometry (LC–MS); conditions: thomasclavelia ramosa, 2 µM
# [4] = The drug is tested on Clostridium asparagiforme strain: DSM15981 for biotransformation. The drug concentrations were measured before and after a 12-h incubation by liquid-chromatography-coupled mass spectrometry (LC–MS); type: ADME; design: dose 2 uM, timepoint 0 vs 12 hours; conditions: enterocloster asparagiformis, 2 µM
# [5] = The drug is tested on Clostridium spiroforme strain: DSM1552 for biotransformation. The drug concentrations were measured before and after a 12-h incubation by liquid-chromatography-coupled mass spectrometry (LC–MS); conditions: thomasclavelia spiroformis, 2 µM
# [6] = The drug is tested on Clostridium scindens strain: ATCC35704 for biotransformation. The drug concentrations were measured before and after a 12-h incubation by liquid-chromatography-coupled mass spectrometry (LC–MS); conditions: 2 µM
# [7] = The drug is tested on Clostridium hathewayi strain: DSM13479 for biotransformation. The drug concentrations were measured before and after a 12-h incubation by liquid-chromatography-coupled mass spectrometry (LC–MS); conditions: hungatella hathewayi, 2 µM
# [8] = The drug is tested on Clostridium symbiosum strain: ATCC14940 for biotransformation. The drug concentrations were measured before and after a 12-h incubation by liquid-chromatography-coupled mass spectrometry (LC–MS); conditions: 2 µM
# [9] = enterocloster bolteae, 12 h, 2 µM
# [10] = The drug is tested on Bifidobacterium ruminantium strain: fecal isolate for biotransformation. The drug concentrations were measured before and after a 12-h incubation by liquid-chromatography-coupled mass spectrometry (LC–MS); conditions: 2 µM
# [11] = The drug is tested on Bacteroides sp. WH2 strain: WH2 for biotransformation. The drug concentrations were measured before and after a 12-h incubation by liquid-chromatography-coupled mass spectrometry (LC–MS); conditions: bacteroides sp. wh2, 12 h, 2 µM
# [12] = The drug is tested on Collinsella aerofaciens strain: ATCC25986 for biotransformation. The drug concentrations were measured before and after a 12-h incubation by liquid-chromatography-coupled mass spectrometry (LC–MS); conditions: 2 µM
# [13] = The drug is tested on Bacteroides fragilis strain: ATCC43859 for biotransformation. The drug concentrations were measured before and after a 12-h incubation by liquid-chromatography-coupled mass spectrometry (LC–MS); conditions: 2 µM
# [14] = anaerostipes sp., 12 h, 2 µM
# Description: The drug is tested on Anaerostipes sp. strain: fecal isolate for biotransformation. The drug concentrations were measured before and after a 12-h incubation by liquid-chromatography-coupled mass spectrometry (LC–MS)
# [15] = The drug is tested on Ruminococcus lactaris strain: ATCC29176 for biotransformation. The drug concentrations were measured before and after a 12-h incubation by liquid-chromatography-coupled mass spectrometry (LC–MS); conditions: 2 µM
# [16] = segatella copri, 12 h, 2 µM
# Description: The drug is tested on Prevotella copri strain: DSM18205 for biotransformation. The drug concentrations were measured before and after a 12-h incubation by liquid-chromatography-coupled mass spectrometry (LC–MS)
# [17] = The drug is tested on Bacteroides uniformis strain: ATCC8492 for biotransformation. The drug concentrations were measured before and after a 12-h incubation by liquid-chromatography-coupled mass spectrometry (LC–MS); conditions: 2 µM
# [18] = The drug is tested on Enterococcus faecalis strain: V583 for biotransformation. The drug concentrations were measured before and after a 12-h incubation by liquid-chromatography-coupled mass spectrometry (LC–MS); conditions: 2 µM
# [19] = The drug is tested on Bacteroides xylanisolvens strain: DSM18836 for biotransformation. The drug concentrations were measured before and after a 12-h incubation by liquid-chromatography-coupled mass spectrometry (LC–MS); conditions: 2 µM
# [20] = The drug is tested on Anaerococcus hydrogenalis strain: DSM7454 for biotransformation. The drug concentrations were measured before and after a 12-h incubation by liquid-chromatography-coupled mass spectrometry (LC–MS); conditions: 2 µM
# [21] = The drug is tested on Bacteroides vulgatus strain: ATCC8482 for biotransformation. The drug concentrations were measured before and after a 12-h incubation by liquid-chromatography-coupled mass spectrometry (LC–MS); conditions: phocaeicola vulgatus, 2 µM
# [22] = The drug is tested on Bacteroides coprophilus strain: DSM18228 for biotransformation. The drug concentrations were measured before and after a 12-h incubation by liquid-chromatography-coupled mass spectrometry (LC–MS); conditions: 2 µM
# [23] = The drug is tested on Providencia stuartii strain: ATCC25827 for biotransformation. The drug concentrations were measured before and after a 12-h incubation by liquid-chromatography-coupled mass spectrometry (LC–MS); conditions: 2 µM
# [24] = The drug is tested on Bacteroides pectinophilus strain: ATCC43243 for biotransformation. The drug concentrations were measured before and after a 12-h incubation by liquid-chromatography-coupled mass spectrometry (LC–MS); conditions: 2 µM
# [25] = The drug is tested on Ruminococcus torques strain: ATCC27756 for biotransformation. The drug concentrations were measured before and after a 12-h incubation by liquid-chromatography-coupled mass spectrometry (LC–MS); type: ADME; design: dose 2 uM, timepoint 0 vs 12 hours; conditions: 2 µM
# [26] = victivallis vadensis, 12 h, 2 µM
# Description: The drug is tested on Victivallis vadensis strain: ATCC BAA-548 for biotransformation. The drug concentrations were measured before and after a 12-h incubation by liquid-chromatography-coupled mass spectrometry (LC–MS)
# [27] = The drug is tested on Ruminococcus gnavus strain: ATCC29149 for biotransformation. The drug concentrations were measured before and after a 12-h incubation by liquid-chromatography-coupled mass spectrometry (LC–MS); conditions: mediterraneibacter gnavus, 2 µM
# [28] = bacteroides fragilis, 12 h, 2 µM
# Description: The drug is tested on Bacteroides fragilis strain: NCTC 9343 for biotransformation. The drug concentrations were measured before and after a 12-h incubation by liquid-chromatography-coupled mass spectrometry (LC–MS)
# [29] = The drug is tested on Eubacterium rectale strain: ATCC33656 for biotransformation. The drug concentrations were measured before and after a 12-h incubation by liquid-chromatography-coupled mass spectrometry (LC–MS); conditions: agathobacter rectalis, 2 µM
# [30] = The drug is tested on Blautia luti strain: DSM14534 for biotransformation. The drug concentrations were measured before and after a 12-h incubation by liquid-chromatography-coupled mass spectrometry (LC–MS); type: ADME; design: dose 2 uM, timepoint 0 vs 12 hours; conditions: 2 µM
# [31] = The drug is tested on Eubacterium ventriosum strain: ATCC27560 for biotransformation. The drug concentrations were measured before and after a 12-h incubation by liquid-chromatography-coupled mass spectrometry (LC–MS); type: ADME; design: dose 2 uM, timepoint 0 vs 12 hours; conditions: 2 µM
# [32] = The drug is tested on Bacteroides cellulosilyticus strain: DSM14838 for biotransformation. The drug concentrations were measured before and after a 12-h incubation by liquid-chromatography-coupled mass spectrometry (LC–MS); conditions: 2 µM
# [33] = The drug is tested on Coprococcus comes strain: ATCC27758 for biotransformation. The drug concentrations were measured before and after a 12-h incubation by liquid-chromatography-coupled mass spectrometry (LC–MS); type: ADME; design: dose 2 uM, timepoint 0 vs 12 hours; conditions: 2 µM
# [34] = The drug is tested on Eubacterium hallii strain: DSM3353 for biotransformation. The drug concentrations were measured before and after a 12-h incubation by liquid-chromatography-coupled mass spectrometry (LC–MS); conditions: anaerobutyricum hallii, 2 µM
# [35] = The drug is tested on Dorea formicigenerans strain: ATCC27755 for biotransformation. The drug concentrations were measured before and after a 12-h incubation by liquid-chromatography-coupled mass spectrometry (LC–MS); conditions: 2 µM
# [36] = bacteroides eggerthii, 12 h, 2 µM
# Description: The drug is tested on Bacteroides eggerthii strain: DSM20697 for biotransformation. The drug concentrations were measured before and after a 12-h incubation by liquid-chromatography-coupled mass spectrometry (LC–MS)
# [37] = The drug is tested on Anaerotruncus colihominis strain: DSM17241 for biotransformation. The drug concentrations were measured before and after a 12-h incubation by liquid-chromatography-coupled mass spectrometry (LC–MS); conditions: 2 µM
# [38] = akkermansia muciniphila, 12 h, 2 µM
# Description: The drug is tested on Akkermansia muciniphila strain: ATCC BAA-835 for biotransformation. The drug concentrations were measured before and after a 12-h incubation by liquid-chromatography-coupled mass spectrometry (LC–MS)
# [39] = bifidobacterium adolescentis, 12 h, 2 µM
# Description: The drug is tested on Bifidobacterium adolescentis strain: ATCC 15703 for biotransformation. The drug concentrations were measured before and after a 12-h incubation by liquid-chromatography-coupled mass spectrometry (LC–MS)
# [40] = The drug is tested on Collinsella intestinalis strain: DSM13280 for biotransformation. The drug concentrations were measured before and after a 12-h incubation by liquid-chromatography-coupled mass spectrometry (LC–MS); conditions: 2 µM
# [41] = The drug is tested on Edwardsiella tarda strain: ATCC23685 for biotransformation. The drug concentrations were measured before and after a 12-h incubation by liquid-chromatography-coupled mass spectrometry (LC–MS); conditions: 2 µM
# [42] = parabacteroides johnsonii, 12 h, 2 µM
# Description: The drug is tested on Parabacteroides johnsonii strain: DSM18315 for biotransformation. The drug concentrations were measured before and after a 12-h incubation by liquid-chromatography-coupled mass spectrometry (LC–MS)
# [43] = The drug is tested on Subdoligranulum variabile strain: DSM15176 for biotransformation. The drug concentrations were measured before and after a 12-h incubation by liquid-chromatography-coupled mass spectrometry (LC–MS); conditions: 2 µM
# [44] = bacteroides intestinalis, 12 h, 2 µM
# Description: The drug is tested on Bacteroides intestinalis strain: DSM17393 for biotransformation. The drug concentrations were measured before and after a 12-h incubation by liquid-chromatography-coupled mass spectrometry (LC–MS)
smiles,measurement,setting,value
Br.NC(=O)C(c1ccccc1)(c1ccccc1)[C@@H]1CCN(CCc2ccc3c(c2)CCO3)C1 [DARIFENACIN HYDROBROMIDE],Bacterial Biotransformation,[1],Compound NOT metabolized
same,Bacterial Biotransformation,[2],Compound NOT metabolized
same,Bacterial Biotransformation,[3],Compound NOT metabolized
same,Bacterial Biotransformation,[4],Compound NOT metabolized
same,Bacterial Biotransformation,[5],Compound NOT metabolized
same,Bacterial Biotransformation,[6],Compound NOT metabolized
same,Bacterial Biotransformation,[7],Compound NOT metabolized
same,Bacterial Biotransformation,[8],Compound NOT metabolized
same,Bacterial Biotransformation,[9],Compound NOT metabolized
CCOC(=O)[C@H](CCc1ccccc1)N[C@@H](C)C(=O)N1[C@H](C(=O)O)C[C@@H]2CCC[C@@H]21,Bacterial Biotransformation,[10],Compound NOT metabolized
same,Bacterial Biotransformation,[11],Compound NOT metabolized
same,Bacterial Biotransformation,[12],Compound NOT metabolized
same,Bacterial Biotransformation,[13],Compound metabolized
same,Bacterial Biotransformation,[14],Compound NOT metabolized
same,Bacterial Biotransformation,[15],Compound NOT metabolized
same,Bacterial Biotransformation,[16],Compound NOT metabolized
same,Bacterial Biotransformation,[17],Compound metabolized
same,Bacterial Biotransformation,[18],Compound NOT metabolized
same,Bacterial Biotransformation,[19],Compound metabolized
same,Bacterial Biotransformation,[20],Compound NOT metabolized
same,Bacterial Biotransformation,[21],Compound metabolized
same,Bacterial Biotransformation,[22],Compound NOT metabolized
same,Bacterial Biotransformation,[2],Compound NOT metabolized
same,Bacterial Biotransformation,[23],Compound NOT metabolized
same,Bacterial Biotransformation,[24],Compound NOT metabolized
same,Bacterial Biotransformation,[25],Compound NOT metabolized
same,Bacterial Biotransformation,[26],Compound NOT metabolized
same,Bacterial Biotransformation,[27],Compound NOT metabolized
same,Bacterial Biotransformation,[3],Compound NOT metabolized
same,Bacterial Biotransformation,[28],Compound NOT metabolized
same,Bacterial Biotransformation,[29],Compound NOT metabolized
same,Bacterial Biotransformation,[30],Compound NOT metabolized
same,Bacterial Biotransformation,[31],Compound NOT metabolized
same,Bacterial Biotransformation,[32],Compound metabolized
same,Bacterial Biotransformation,[33],Compound NOT metabolized
same,Bacterial Biotransformation,[34],Compound NOT metabolized
same,Bacterial Biotransformation,[35],Compound NOT metabolized
same,Bacterial Biotransformation,[36],Compound NOT metabolized
same,Bacterial Biotransformation,[37],Compound NOT metabolized
same,Bacterial Biotransformation,[38],Compound NOT metabolized
same,Bacterial Biotransformation,[6],Compound NOT metabolized
same,Bacterial Biotransformation,[39],Compound NOT metabolized
same,Bacterial Biotransformation,[40],Compound NOT metabolized
same,Bacterial Biotransformation,[8],Compound NOT metabolized
same,Bacterial Biotransformation,[41],Compound NOT metabolized
same,Bacterial Biotransformation,[42],Compound NOT metabolized
same,Bacterial Biotransformation,[43],Compound NOT metabolized
same,Bacterial Biotransformation,[44],Compound NOT metabolized
